In experiment [1] the target is T1, m2 mACHR (Homo sapiens, UniProt P08172).
T1 sequence (P08172 1-466): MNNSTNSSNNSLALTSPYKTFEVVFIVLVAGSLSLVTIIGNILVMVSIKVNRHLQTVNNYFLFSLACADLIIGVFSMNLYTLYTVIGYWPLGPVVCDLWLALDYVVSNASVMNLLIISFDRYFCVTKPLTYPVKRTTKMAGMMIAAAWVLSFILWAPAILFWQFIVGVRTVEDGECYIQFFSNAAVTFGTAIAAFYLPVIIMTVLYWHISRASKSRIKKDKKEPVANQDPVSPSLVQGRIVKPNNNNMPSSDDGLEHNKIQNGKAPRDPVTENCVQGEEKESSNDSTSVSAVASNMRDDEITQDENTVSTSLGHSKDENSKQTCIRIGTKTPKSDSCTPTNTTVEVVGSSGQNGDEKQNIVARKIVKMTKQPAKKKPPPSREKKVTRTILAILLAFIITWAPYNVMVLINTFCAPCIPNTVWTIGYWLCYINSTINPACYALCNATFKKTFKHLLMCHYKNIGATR

Experiment [2] concerns NIH/3T3 cells. Kind of experiment: [3H]NMS binding to membranes of vector (pDS, neo) transfectants.
Experiment [3] has as its system human muscarinic acetylcholine receptors. Nature of the experiment: Focus assay after transfection of NIH/3T3 cells, mACHR genes in general. The note with it: atropine 10 μM. The format is cell-based. From the text: (§1) Transfection. […] Mass populations expressing the transfected neogene were selected for their ability to grow in the presence of geneticin (G418) (Gibco). Transformed foci were scored in stained plates of NIH/3T3 2-3 weeks after transfection. Individual G418 colonies or transformed foci were isolated with the aid of cloning cylinders, and maintained in Dulbecco's Modified Eagle Medium containing 10% calf serum.
(§2) DNA Constructs. […] Analysis of Receptor Expression.
(§3) Foci of transformation were scored after 2-3 weeks. The efficiency of transfection was determined by scoring neo resistant colonies in medium containing G418 (0.750 mg/ml). […] Results represent the average of three independent experiments.

The target of another experiment is T2, m5 mACHR (Homo sapiens, UniProt P08912).
T2 construct: carbachol-dependent focus formation
T2 sequence (P08912 1-532): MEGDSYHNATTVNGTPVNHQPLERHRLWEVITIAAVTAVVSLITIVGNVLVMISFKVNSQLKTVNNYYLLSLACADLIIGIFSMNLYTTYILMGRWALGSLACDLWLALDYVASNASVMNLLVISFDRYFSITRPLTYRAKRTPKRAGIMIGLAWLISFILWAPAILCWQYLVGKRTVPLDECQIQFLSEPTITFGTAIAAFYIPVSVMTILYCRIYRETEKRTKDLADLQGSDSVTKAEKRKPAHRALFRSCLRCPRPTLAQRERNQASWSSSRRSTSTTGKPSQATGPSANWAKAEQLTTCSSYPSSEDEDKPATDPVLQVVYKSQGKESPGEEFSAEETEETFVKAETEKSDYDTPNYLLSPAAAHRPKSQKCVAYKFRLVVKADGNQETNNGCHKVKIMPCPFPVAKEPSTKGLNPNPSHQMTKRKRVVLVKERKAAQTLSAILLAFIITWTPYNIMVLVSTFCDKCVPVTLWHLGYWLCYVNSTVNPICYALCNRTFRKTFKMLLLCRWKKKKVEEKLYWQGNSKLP
Nature of the experiment: Focus assay after transfection of NIH/3T3 cells, pDS m5. The note with it: for Focus-forming activity: pDS m5. The format is cell-based.
Description: as §1, §2, §3

Experiment [4] deals with T1, m2 mACHR. Kind of experiment: cAMP assay, forskolin-stimulated, m2 clones. The format is cell-based. On the set-up: expressed in transfected cells; host or cells: NIH/3T3 murine fibroblasts (plasmid pDS m2). The conditions noted are these: 1 mM carbachol, m2 (FIG. 4).
The test system of experiment [5] is NIH/3T3 cells. Nature of the experiment: Focus assay after transfection of NIH/3T3 cells, pDS vector. The format is cell-based, murine.
Description: as §1, §2, §3

The target of experiment [6] is T3, m4 mACHR (Homo sapiens, UniProt P08173).
T3 sequence (P08173 1-479): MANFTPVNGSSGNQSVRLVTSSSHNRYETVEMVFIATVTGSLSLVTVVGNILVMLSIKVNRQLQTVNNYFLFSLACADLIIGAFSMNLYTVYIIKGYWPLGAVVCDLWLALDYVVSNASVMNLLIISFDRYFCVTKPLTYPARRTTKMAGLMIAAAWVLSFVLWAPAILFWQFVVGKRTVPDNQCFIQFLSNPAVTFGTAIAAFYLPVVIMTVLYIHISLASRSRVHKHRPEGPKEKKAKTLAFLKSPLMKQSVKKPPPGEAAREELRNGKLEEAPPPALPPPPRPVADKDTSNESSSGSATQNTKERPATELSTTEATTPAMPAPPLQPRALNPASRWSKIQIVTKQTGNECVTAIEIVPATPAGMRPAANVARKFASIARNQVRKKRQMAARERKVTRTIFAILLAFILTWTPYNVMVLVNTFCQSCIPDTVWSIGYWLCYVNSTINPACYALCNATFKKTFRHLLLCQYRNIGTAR
Kind of experiment: Focus assay after transfection of NIH/3T3 cells, pDS m4. The format is cell-based. On the set-up: expressed in transfected cells; host or cells: NIH/3T3 murine fibroblasts (plasmid pDS m4). The conditions noted are these: for Focus-forming activity: pDS m4.
Description: as §1, §2, §3

The test system of experiment [7] is NIH/3T3 cells. Nature of the experiment: PI hydrolysis in neo NIH/3T3 cells. Format: cell-based, murine. The conditions noted are these: Mus musculus, NIH3T3, 1 h, binding 0, read-out: PI Hydrolysis Maximal activation. An excerpt: Phosphatidylinositol Hydrolysis.
EC50, half maximal concentration.

The subject of experiment [8] is NIH/3T3 cells. The conditions noted are these: neo, binding 0.
Experiment [9] addresses T1, m2 mACHR. Nature of the experiment: Focus assay after transfection of NIH/3T3 cells, pDS m2. Format: cell-based. On the set-up: expressed in transfected cells; host or cells: NIH/3T3 murine fibroblasts (plasmid pDS m2). The conditions noted are these: for Focus-forming activity: pDS m2.
Description: as §1, §2, §3

A further experiment deals with m1, m2, m3 or m4 mACHRs. Kind of experiment: cAMP assay without forskolin. The note with it: 1 mM carbachol, 10 min.
For experiment [10], the target named is T3, m4 mACHR. Nature of the experiment: cAMP assay, forskolin-stimulated, m4 clones. On the set-up: expressed in transfected cells; host or cells: NIH/3T3 murine fibroblasts (plasmid pDS m4). Format: cell-based. The note with it: 1 mM carbachol, m4 (FIG. 4).

A value given as a limit tells only on which side of the number the result lay.

In the case of `C[N+]1(C)C2CC(OC(=O)C(CO)c3ccccc3)CC1C1OC12` (stereo not shown) [[^3 H]NMS, N-methylscopolamine], the results for the Binding on m2 mACHR [1] (G418 selected m2 clone (Table 3)) and in the experiment on NIH/3T3 cells [2] (neo clone (Table 3)) were 308 fmoles [^3 H]NMS/mg protein and 0 fmoles [^3 H]NMS/mg protein, respectively. Also, the “Binding [3H]NMS” value at m2 mACHR [1] (mass culture, pDS m2) was 90 fmoles [^3 H]NMS/mg protein; with NIH/3T3 cells [2] (mass culture, pDS), < 1 fmoles [^3 H]NMS/mg protein.

With `CN1[C@@H]2CC[C@H]1C[C@@H](OC(=O)C(CO)c1ccccc1)C2` (stereo partly shown) [atropine], the “foci of transformation in cells maintained in atropine” value in [3] is recorded as “No foci of transformation were observed”. Also, in experiment [3] (data not shown), the “carbachol induced focus-formation in presence of atropine” value is reported as “abolished”.

Consider `C[N+](C)(C)CCOC(N)=O` [carbachol], for which the Focus-forming activity is recorded as 47 per pmol DNA on m5 mACHR (carbachol 10^-4 M); less than 5 per pmol DNA on m5 mACHR (carbachol 10^-6 M); less than 1 per pmol DNA in the experiment on NIH/3T3 cells [5] (carbachol 10^-4 M); less than 1 per pmol DNA in the experiment with NIH/3T3 cells [5] (carbachol 10^-6 M); less than 1 per pmol DNA on m4 mACHR [6] (carbachol 10^-4 M); less than 1 per pmol DNA on m4 mACHR [6] (carbachol 10^-6 M). The Focus-forming activity on m2 mACHR [9] (carbachol 10^-4 M) and on m2 mACHR [9] (carbachol 10^-6 M) was less than 1 per pmol DNA each time. In addition, the “foci of transformation in presence of carbachol” value on m5 mACHR (m5 transfectants) is on record as “foci of transformation readily appeared”; on m4 mACHR [6] (m4 transfected cultures) it was “not m2 or m4”; on m2 mACHR [9] (m2 transfected cultures) it was “not m2 or m4”. Moreover, the “cAMP levels in forskolin treated cells” value on m2 mACHR [4] and on m4 mACHR [10] was “decreased” throughout. For the same molecule, the Emax in the experiment with NIH/3T3 cells [7] came out at 100%. Moreover, in the experiment with NIH/3T3 cells [8], the “Transformation Maximal transportation” value came to 0. Besides, the “cAMP accumulation without forskolin” value with m1, m2, m3 or m4 mACHRs is on record as “did not accumulate detectable cAMP”.

For the origin of these results see patent publication US5384243A, “Method for screening an agent for its ability to prevent cell transformation” (priority 1992, dated 1995).
